Experimental data taken from PubChem BioAssay (NCI).
Several values for one entry are separate records, joined by “and”; a condition that tells them apart may be missing. Equal entries are not always repeated.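 Assay format: 96-well plates, 48-hour exposure. Here, GI50 denotes the concentration required for 50% inhibition of growth. At the TGI there is no net growth.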

Columns and labels:
Assay in all cases: NCI anticancer screen, dose series, 48 h
[1] = tested on: ACHN renal
[2] = tested on: TK-10 renal
[3] = tested on: U251 CNS
[4] = tested on: IGROV1 ovarian
[5] = tested on: A549 NSCLC
[6] = tested on: UACC-257 melanoma
[7] = tested on: HL-60(TB) leukemia
[8] = tested on: SW-620 colon
[9] = tested on: HOP-92 NSCLC
[10] = tested on: SN12C renal

Compound | TGI [1] | TGI [2] | TGI [3] | TGI [4] | TGI [5] | TGI [6] | TGI [7] | TGI [8] | TGI [9] | TGI [10] | GI50 [1] | GI50 [2] | GI50 [3] | GI50 [4] | GI50 [5] | GI50 [6] | GI50 [7] | GI50 [8] | GI50 [9] | GI50 [10]
OCC1OC(n2cnc3c2NC=NC[C@H]3O)C(Cl)C1O (stereo partly specified) | > 100 µM | > 100 µM | > 100 µM | > 100 µM | > 100 µM | > 100 µM | > 100 µM | > 100 µM | > 100 µM | > 100 µM | – | – | – | – | – | – | – | – | – | –
Cc1cc(NC(=S)SCc2ccc(F)cc2)c([N+](=O)[O-])cc1C | > 100 µM | 65.4 µM | 57.5 µM | – | > 100 µM | 53.6 µM | 45.4 µM | > 100 µM | 68 µM | 48.4 µM | – | – | – | – | – | – | – | – | – | –
CCOC(=O)C1SC(=Nc2ccc(C)c(C)c2)N=C1C (stereo unspecified) | > 100 µM | > 100 µM | > 100 µM | > 100 µM | > 100 µM | > 100 µM | > 100 µM | > 100 µM | > 100 µM | > 100 µM | – | – | – | – | – | – | – | – | – | –
Nc1nc(Nc2cccnc2)sc1C(=O)c1ccccc1F | > 100 µM | 49.9 µM | > 100 µM | > 29.1 µM | > 100 µM | 40.1 µM | 4.81 µM | > 42.6 µM | > 100 µM | > 100 µM | 2.53 µM | 4.09 µM | 2.71 µM | 2.17 µM | 3.16 µM | 4.29 µM | 2.09 µM | 3.5 µM | 4160 nM | 3.02 µM
CCOC(=O)N[C@@H]1C(CC(=O)OC)O[C@H]2OC(C)(C)O[C@H]21 (stereo partly specified) | > 100 µM | – | > 100 µM | > 100 µM | > 100 µM | > 100 µM | > 100 µM | > 100 µM | > 100 µM | > 100 µM | – | – | – | – | – | – | – | – | – | –
C/C(=N\Nc1ccc(Cl)cn1)c1ccc2ccccc2n1 | > 100 µM | > 100 µM | > 100 µM | > 100 µM | > 100 µM | 97.3 µM | 8.95 µM | > 100 µM | > 100 µM | > 100 µM | 2.49 µM | 6.31 µM | 2.83 µM | 2.88 µM | 4.22 µM | 5.33 µM | 2.18 µM | 3.83 µM | 2250 nM | 3.19 µM
Cc1cc2ncnn2cc1Nc1ncc2c(n1)n(C1CCOCC1)c(=O)n2C | > 100 µM | – | > 100 µM | 25.5 µM | > 100 µM | 72.5 µM | > 100 µM | > 100 µM | 18.8 µM | > 100 µM | 9.97 µM | – | 14.1 µM | 3.19 µM | 7.22 µM | 7.52 µM | 23.3 µM | 18.1 µM | 2010 nM | 6.21 µM
COc1ccc(CN2CC(C)(C)C2=O)c(OC)c1 | > 100 µM | > 100 µM | > 100 µM | > 100 µM | > 100 µM | > 100 µM | > 100 µM | > 100 µM | > 100 µM | > 100 µM | – | – | – | – | – | – | – | – | – | –
CCNCCNc1cc(-c2ccc(C(F)(F)F)cc2)c(C#N)c2nc3ccccc3n12 | 2.64 µM | 3.76 µM | 1.61 µM | 2.99 µM | 3.41 µM | 3.83 µM | 0.468 µM | 2.75 µM | 2.98 µM | 2.83 µM | 1.24 µM | 2.14 µM | 0.466 µM | 1.45 µM | 1.75 µM | 2.18 µM | 0.203 µM | 1.22 µM | 1550 nM | 1.34 µM
CC12OC(C(=O)C13CC3)C1C(=O)c3ccc4c(ccc5ccccc54)c3C(=O)C12 (stereo unspecified) | – | > 100 µM | – | > 100 µM | > 100 µM | > 100 µM | > 100 µM | – | > 100 µM | – | – | 37.1 µM | – | 28.9 µM | 45 µM | 33.5 µM | 33.2 µM | – | 27500 nM | –
Clc1cc(Cl)c2ns[s+]c2c1Cl | > 100 µM | > 100 µM | > 100 µM | > 100 µM | > 100 µM | > 100 µM | > 100 µM | > 100 µM | – | > 100 µM | – | – | – | – | – | – | – | – | – | –
CC1=CC(=O)C=CC1=O | 29.4 µM and 10.1 µM | 36.4 µM and 30.7 µM | 28.9 µM | 43 µM | 66.8 µM | 33.9 µM | – | 20.8 µM | 33.4 µM | – | 15.9 µM and 2.94 µM | 20.8 µM and 16.9 µM | 57.4 µM and 15.4 µM | 18.1 µM and 18.2 µM | 79.4 µM and 24.9 µM | 35.9 µM and 17.4 µM | 2.37 µM and 3.51 µM | 5.31 µM | 16700 nM | 28.7 µM
S=c1ssc(N2CCOCC2)c1Cl | > 100 µM | > 100 µM | 28.3 µM | – | > 100 µM | > 100 µM | 63.3 µM | – | > 100 µM | > 100 µM | 78.5 µM | 16 µM | 15 µM | – | > 100 µM | > 100 µM | 24.4 µM | – | 78300 nM | 72.7 µM
CC(C)c1ccc(-c2cc(-c3cn[nH]c3-c3ccccn3)ccn2)cc1 | > 25 µM | > 25 µM | > 25 µM | > 25 µM | > 25 µM | > 25 µM | > 25 µM | > 25 µM | > 25 µM | > 25 µM | 18.5 µM | > 18.6 µM | 11.8 µM | > 23.3 µM | 13.7 µM | > 25 µM | 11.4 µM | 18 µM | 1990 nM | 15.9 µM
Cc1cc(C)c(NC(=O)c2sc3nc4c(cc3c2N)C(=O)CCC4)c(C)c1 | > 100 µM | > 87.9 µM | > 100 µM | > 100 µM | > 100 µM | > 95.9 µM | > 100 µM | > 100 µM | 32.1 µM | > 100 µM | 6.11 µM | 4.5 µM | 3.49 µM | 5.58 µM | 2.51 µM | 10 µM | 3.64 µM | 2.87 µM | 114 nM | 7.42 µM
CCc1nc(N)nc(N)c1-c1ccc(NC)c([N+](=O)[O-])c1 | > 100 µM | > 100 µM | > 100 µM | > 100 µM | > 100 µM | > 100 µM | > 51.8 µM | > 100 µM | > 86.8 µM | > 100 µM | – | – | – | – | – | – | – | – | – | –
